The term IC50 denotes the point on the concentration scale where inhibition reaches its midpoint.

SMILES strings stand for the structures. Bridge positions count the residues as written; N and C are the ends. Square brackets hold non-standard residues; d marks the D form. Peptide text beside a SMILES is read from it. * marks the point of attachment. ξ: configuration not given here. Phe(4-CONH2) = NC(=O)c1ccc(C[C@H](N)C(=O)O)cc1; Phe(4-COOH) = N[C@@H](Cc1ccc(C(=O)O)cc1)C(=O)O; Bip = N[C@@H](Cc1ccc(-c2ccccc2)cc1)C(=O)O; Phe(4-CN) = N#Cc1ccc(C[C@H](N)C(=O)O)cc1; Phe(3-Me) = Cc1cccc(C[C@H](N)C(=O)O)c1; Phe(4-F) = N[C@@H](Cc1ccc(F)cc1)C(=O)O; Val(3-OH) = CC(C)(O)[C@H](N)C(=O)O; 4Pal = N[C@@H](Cc1ccncc1)C(=O)O; Cha = N[C@@H](CC1CCCCC1)C(=O)O; Thr(3ξ) = CC(O)[C@H](N)C(=O)O; Carboxymethyl = O=C(O)C*; Nle = CCCC[C@H](N)C(=O)O; Orn = NCCC[C@H](N)C(=O)O; Aun = NCCCCCCCCCCC(=O)O; Dab = NCC[C@H](N)C(=O)O; Nva = CCC[C@H](N)C(=O)O; Abu = CC[C@H](N)C(=O)O; AEEA = NCCOCCOCC(=O)O

The target in this experiment is T1, PD-1/PD-L1 interaction (PE-labeled human PD-L1-Ig binding to Jurkat cell line over-expressing human PD-1) (Homo sapiens, UniProt Q15116).
T1 construct: expressed in transfected cells; host or cells: Jurkat
T1 sequence (Q15116 25-288): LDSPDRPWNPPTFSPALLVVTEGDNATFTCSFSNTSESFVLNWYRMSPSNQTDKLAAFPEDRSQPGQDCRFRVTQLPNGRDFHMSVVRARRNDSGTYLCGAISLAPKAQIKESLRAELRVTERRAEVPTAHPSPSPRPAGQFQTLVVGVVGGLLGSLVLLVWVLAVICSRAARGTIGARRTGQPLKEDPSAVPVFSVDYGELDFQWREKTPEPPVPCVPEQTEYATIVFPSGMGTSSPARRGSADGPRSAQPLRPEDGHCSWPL
The experiment can be described thus: Jurkat-PD-1 Cell Binding High-Content Screening Assay (CBA). The format is cell-based. The following applies: Jurkat cell line over-expressing human PD-1; PE-labeled PD-L1-Ig 20 nM final; read-out: Jurkat hPD1-PDL1 IC50. The gist of the method:
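Read-out is high-content imaging of cell-bound phycoerythrin-tagged PD-L1-Ig on fixed, Hoechst-counterstained Jurkat cells that over-express human PD-1. Compound exposure lasts 2 h at 37° C before the labeled ligand (20 nM final) is added for a further hour.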
Consider `Cc1cccc(C[C@@H]2NC(=O)[C@H](CC(=O)O)NC(=O)[C@H](Cc3ccc(C#N)cc3)NC(=O)[C@H](C(C)O)NC(=O)CSC[C@@H](C(=O)N[C@@H](CCN)C(=O)NCCOCCOCC(=O)NCCOCCOCC(=O)NCCCCCCCCCCC(=O)O)NC(=O)[C@H](Cc3cnc[nH]3)NC(=O)[C@H](C(C)(C)O)NC(=O)[C@H](CC3CCCCC3)NC(=O)[C@H](CCN)NC(=O)[C@@H](CC(C)C)NC(=O)[C@H](CCCN)NC(=O)[C@H](Cc3ccc(OCC(=O)O)cc3)NC(=O)[C@H](Cc3ccc(-c4ccccc4)cc3)NC(=O)[C@H](Cc3ccc(OCC(=O)O)cc3)NC2=O)c1` (stereo partly drawn) [Compound 3773] ({CH2CO}-[Thr(3ξ)][Phe(4-CN)]D[Phe(3-Me)]Y(Carboxymethyl)[Bip]Y(Carboxymethyl)[Orn][dL][Dab][Cha][Val(3-OH)]HC[Dab][AEEA][AEEA][Aun]-OH; thioether N-14), for which the IC50 stood at 1 nM.

As for `Cc1cccc(C[C@@H]2NC(=O)[C@H](CC(=O)O)NC(=O)[C@H](Cc3ccc(C#N)cc3)NC(=O)[C@H](C(C)O)NC(=O)CSC[C@@H](C(=O)N[C@@H](CCN)C(=O)NCCOCCOCC(=O)NCCOCCOCC(=O)NCCCCCCCCCCC(=O)O)NC(=O)[C@H](Cc3cnc[nH]3)NC(=O)[C@H](C(C)O)NC(=O)[C@H](CC3CCCCC3)NC(=O)[C@H](CCN)NC(=O)[C@@H](CC(C)C)NC(=O)[C@H](CCCN)NC(=O)[C@H](Cc3ccc(OCC(=O)O)cc3)NC(=O)[C@H](Cc3ccc(-c4ccccc4)cc3)NC(=O)[C@H](Cc3ccc(OCC(=O)O)cc3)NC2=O)c1` (stereo partly drawn) [Compound 3774] ({CH2CO}-[Thr(3ξ)][Phe(4-CN)]D[Phe(3-Me)]Y(Carboxymethyl)[Bip]Y(Carboxymethyl)[Orn][dL][Dab][Cha][Thr(3ξ)]HC[Dab][AEEA][AEEA][Aun]-OH; thioether N-14), the IC50 is 6.3 nM.

In the case of `Cc1cccc(C[C@@H]2NC(=O)[C@H](CC(=O)O)NC(=O)[C@H](Cc3ccc(C(=O)O)cc3)NC(=O)[C@H](C(C)O)NC(=O)CSC[C@@H](C(=O)N[C@@H](CCN)C(=O)NCCOCCOCC(=O)NCCOCCOCC(=O)NCCCCCCCCCCC(=O)O)NC(=O)[C@H](CO)NC(=O)[C@H](C(C)O)NC(=O)[C@H](CC3CCCCC3)NC(=O)[C@H](CCN)NC(=O)[C@@H](CC(C)C)NC(=O)[C@H](CCCN)NC(=O)[C@H](Cc3ccc(C(=O)O)cc3)NC(=O)[C@H](Cc3ccc(-c4ccccc4)cc3)NC(=O)[C@H](Cc3ccc(C(=O)O)cc3)NC2=O)c1` (stereo partly drawn) [Compound 3775] ({CH2CO}-[Thr(3ξ)][Phe(4-COOH)]D[Phe(3-Me)][Phe(4-COOH)][Bip][Phe(4-COOH)][Orn][dL][Dab][Cha][Thr(3ξ)]SC[Dab][AEEA][AEEA][Aun]-OH; thioether N-14), the IC50 is 5.8 nM.

For the molecule `Cc1cccc(C[C@@H]2NC(=O)[C@H](CC(=O)O)NC(=O)[C@H](Cc3ccc(C#N)cc3)NC(=O)[C@H](C(C)O)NC(=O)CSC[C@@H](C(=O)N[C@@H](CCN)C(=O)NCCOCCOCC(=O)NCCCCCCCCCCC(=O)O)NC(=O)[C@H](Cc3cnc[nH]3)NC(=O)[C@H](C(C)(C)O)NC(=O)[C@H](CC3CCCCC3)NC(=O)[C@H](CCN)NC(=O)[C@@H](CC(C)C)NC(=O)[C@H](CCCN)NC(=O)[C@H](Cc3ccc(OCC(=O)O)cc3)NC(=O)[C@H](Cc3ccc(-c4ccccc4)cc3)NC(=O)[C@H](Cc3ccc(OCC(=O)O)cc3)NC2=O)c1` (stereo partly drawn) [Compound 3776] ({CH2CO}-[Thr(3ξ)][Phe(4-CN)]D[Phe(3-Me)]Y(Carboxymethyl)[Bip]Y(Carboxymethyl)[Orn][dL][Dab][Cha][Val(3-OH)]HC[Dab][AEEA][Aun]-OH; thioether N-14), the IC50 stood at 3.6 nM.

Turning to `Cc1cccc(C[C@@H]2NC(=O)[C@H](CC(=O)O)NC(=O)[C@H](Cc3ccc(C(=O)O)cc3)NC(=O)[C@H](C(C)O)NC(=O)CSC[C@@H](C(=O)N[C@@H](CCN)C(=O)NCCOCCOCC(=O)NCCOCCOCC(=O)NCCCCCCCCCCC(=O)O)NC(=O)[C@H](CO)NC(=O)[C@H](C(C)(C)O)NC(=O)[C@H](CC3CCCCC3)NC(=O)[C@H](CCN)NC(=O)[C@@H](CC(C)C)NC(=O)[C@H](CCCN)NC(=O)[C@H](Cc3ccc(C(=O)O)cc3)NC(=O)[C@H](Cc3ccc(-c4ccccc4)cc3)NC(=O)[C@H](Cc3ccc(C(=O)O)cc3)NC2=O)c1` (stereo partly drawn) [Compound 3777] ({CH2CO}-[Thr(3ξ)][Phe(4-COOH)]D[Phe(3-Me)][Phe(4-COOH)][Bip][Phe(4-COOH)][Orn][dL][Dab][Cha][Val(3-OH)]SC[Dab][AEEA][AEEA][Aun]-OH; thioether N-14), the IC50 was determined as 3.4 nM.

`Cc1cccc(C[C@@H]2NC(=O)[C@H](CC(=O)O)NC(=O)[C@H](Cc3ccc(C(=O)O)cc3)NC(=O)[C@H](Cc3ccncc3)NC(=O)CSC[C@@H](C(=O)N[C@@H](CCN)C(=O)NCCOCCOCC(=O)NCCCCCCCCCCC(=O)O)NC(=O)[C@H](CO)NC(=O)[C@H](C(C)(C)O)NC(=O)[C@H](CC3CCCCC3)NC(=O)[C@H](CCN)NC(=O)[C@@H](CC(C)C)NC(=O)[C@H](CCCN)NC(=O)[C@H](CCC(N)=O)NC(=O)[C@H](Cc3ccc(-c4ccccc4)cc3)NC(=O)[C@H](Cc3ccc(C(N)=O)cc3)NC2=O)c1` [Compound 3778] ({CH2CO}-[4Pal][Phe(4-COOH)]D[Phe(3-Me)][Phe(4-CONH2)][Bip]Q[Orn][dL][Dab][Cha][Val(3-OH)]SC[Dab][AEEA][Aun]-OH; thioether N-14): the half-maximal inhibitory concentration (IC50) is 26.6 nM.

Take `CC[C@@H]1NC(=O)CSC[C@@H](C(=O)N[C@@H](CCN)C(=O)NCCCCCCCCCCC(=O)O)NC(=O)[C@H](CCC(=O)O)NC(=O)[C@H](C(C)(C)O)NC(=O)[C@H](CC2CCCCC2)NC(=O)[C@H](CCN)NC(=O)[C@@H](CC(C)C)NC(=O)[C@H](CCCN)NC(=O)[C@H](Cc2ccc(OCC(=O)O)cc2)NC(=O)[C@H](Cc2ccc(-c3ccccc3)cc2)NC(=O)[C@H](Cc2ccc(OCC(=O)O)cc2)NC(=O)[C@H](Cc2cccc(C)c2)NC(=O)[C@H](CC(=O)O)NC(=O)[C@H](Cc2ccc(OCC(=O)O)cc2)NC1=O` [Compound 3794] ({CH2CO}-[Abu]Y(Carboxymethyl)D[Phe(3-Me)]Y(Carboxymethyl)[Bip]Y(Carboxymethyl)[Orn][dL][Dab][Cha][Val(3-OH)]EC[Dab][Aun]-OH; thioether N-14): the IC50 amounted to 3.8 nM.

`CCC[C@@H]1NC(=O)CSC[C@@H](C(=O)N[C@@H](CCN)C(=O)NCCCCCCCCCCC(=O)O)NC(=O)[C@H](CCC(=O)O)NC(=O)[C@H](C(C)(C)O)NC(=O)[C@H](CC2CCCCC2)NC(=O)[C@H](CCN)NC(=O)[C@@H](CC(C)C)NC(=O)[C@H](CCCN)NC(=O)[C@H](Cc2ccc(OCC(=O)O)cc2)NC(=O)[C@H](Cc2ccc(-c3ccccc3)cc2)NC(=O)[C@H](Cc2ccc(OCC(=O)O)cc2)NC(=O)[C@H](Cc2cccc(C)c2)NC(=O)[C@H](CC(=O)O)NC(=O)[C@H](Cc2ccc(OCC(=O)O)cc2)NC1=O` [Compound 3795] ({CH2CO}-[Nva]Y(Carboxymethyl)D[Phe(3-Me)]Y(Carboxymethyl)[Bip]Y(Carboxymethyl)[Orn][dL][Dab][Cha][Val(3-OH)]EC[Dab][Aun]-OH; thioether N-14): the IC50 was 5.8 nM.

With `CCCC[C@@H]1NC(=O)CSC[C@@H](C(=O)N[C@@H](CCN)C(=O)NCCCCCCCCCCC(=O)O)NC(=O)[C@H](CCC(=O)O)NC(=O)[C@H](C(C)(C)O)NC(=O)[C@H](CC2CCCCC2)NC(=O)[C@H](CCN)NC(=O)[C@@H](CC(C)C)NC(=O)[C@H](CCCN)NC(=O)[C@H](Cc2ccc(OCC(=O)O)cc2)NC(=O)[C@H](Cc2ccc(-c3ccccc3)cc2)NC(=O)[C@H](Cc2ccc(OCC(=O)O)cc2)NC(=O)[C@H](Cc2cccc(C)c2)NC(=O)[C@H](CC(=O)O)NC(=O)[C@H](Cc2ccc(OCC(=O)O)cc2)NC1=O` [Compound 3796] ({CH2CO}-[Nle]Y(Carboxymethyl)D[Phe(3-Me)]Y(Carboxymethyl)[Bip]Y(Carboxymethyl)[Orn][dL][Dab][Cha][Val(3-OH)]EC[Dab][Aun]-OH; thioether N-14), the IC50 was 1.9 nM.

Regarding `Cc1cccc(C[C@@H]2NC(=O)[C@H](CC(=O)O)NC(=O)[C@H](Cc3ccc(OCC(=O)O)cc3)NC(=O)[C@H](CCN)NC(=O)CSC[C@@H](C(=O)N[C@@H](CCN)C(=O)NCCOCCOCC(=O)NCCCCCCCCCCC(=O)O)NC(=O)[C@H](CCC(=O)O)NC(=O)[C@H](C(C)O)NC(=O)[C@H](CC3CCCCC3)NC(=O)[C@H](CCN)NC(=O)[C@@H](CC(C)C)NC(=O)[C@H](CCCN)NC(=O)[C@H](Cc3ccc(OCC(=O)O)cc3)NC(=O)[C@H](Cc3ccc(-c4ccccc4)cc3)NC(=O)[C@H](Cc3ccc(OCC(=O)O)cc3)NC2=O)c1` (stereo partly drawn) [Compound 3797] ({CH2CO}-[Dab]Y(Carboxymethyl)D[Phe(3-Me)]Y(Carboxymethyl)[Bip]Y(Carboxymethyl)[Orn][dL][Dab][Cha][Thr(3ξ)]EC[Dab][AEEA][Aun]-OH; thioether N-14), the IC50 was 2.1 nM.

`Cc1cccc(C[C@@H]2NC(=O)[C@H](CC(=O)O)NC(=O)[C@H](Cc3ccc(OCC(=O)O)cc3)NC(=O)[C@H](Cc3ccc(F)cc3)NC(=O)CSC[C@@H](C(=O)N[C@@H](CCN)C(=O)NCCCCCCCCCCC(=O)O)NC(=O)[C@H](Cc3cnc[nH]3)NC(=O)[C@H](C(C)(C)O)NC(=O)[C@H](CC3CCCCC3)NC(=O)[C@H](CCN)NC(=O)[C@@H](CC(C)C)NC(=O)[C@H](CCCN)NC(=O)[C@H](Cc3ccc(OCC(=O)O)cc3)NC(=O)[C@H](Cc3ccc(-c4ccccc4)cc3)NC(=O)[C@H](Cc3ccc(OCC(=O)O)cc3)NC2=O)c1` [Compound 3798] ({CH2CO}-[Phe(4-F)]Y(Carboxymethyl)D[Phe(3-Me)]Y(Carboxymethyl)[Bip]Y(Carboxymethyl)[Orn][dL][Dab][Cha][Val(3-OH)]HC[Dab][Aun]-OH; thioether N-14): the IC50 worked out at 28.4 nM.

The record behind these values is patent publication US20260022142A1, “MACROCYCLIC IMMUNOMODULATORS” (Bristol-Myers Squibb Company, priority 2022, published 2026).
